The source of these data is patent publication US20110319360A1, “Method of including apoptosis/Cell death in leukemia cell using a purine nucleoside analogue” (U.S. Department of Veterans Affairs, priority 2010, published 2011).

In data set [1] the test system is normal PBMCs. The experiment in a line: MTS cytotoxicity assay on PBMCs from normal donors. The class given is cell-based, human. The following applies: for EC50: Homo sapiens, PBMC, read-out: ED50 (μM), PBMC. On the procedure: For toxicity studies involving normal blood cells, normal volunteers were enrolled in an IRB-approved protocol for blood collection. PBMCs were isolated from heparin-anticoagulated blood by ficoll-Hypaque density gradient centrifugation.
(§1) 2.5×10^5 CLL cells were incubated in triplicate or quadruplicate in a 96-well tissue culture plate (Costar, Corning, N.Y.) with serial dilutions of LMP-420, fludarabine, and/or recombinant TNF-alpha (R&D Systems, Minneapolis, Minn.) in Hybridoma serum free media (SFM) (GIBCO/Invitrogen, Carlsbad, Calif.) containing 10% heat-inactivated fetal bovine serum (FBS) (Sigma) at 37° C. with 5% CO2. After 72 hours, 20 μl CellTiter 96® AQueous One Solution Cell Proliferation Assay (Promega, Madison, Wis.) MTS (3-(4,5 dimethylthiazol-2-yl)-5-(3-carboxymethoxyphenyl-2-(4-sulfophenyl)-2H-tetrazolium) reagent was added to each well and the absorbance was read at 490 nm on a Thermomax microplate reader (Molecular Devices, Sunnyvale, Calif.). We calculated fractional cytotoxicity as performed previously (Reference 12), comparing absorbance at 490 nm from treated cells to control cells incubated with media alone.
(§2) The concentration effective at killing 50% of CLL cells compared to media alone (ED50) was calculated when 50% fractional cytotoxicity occurred within the range of serial dilutions tested (Reference 12). If the ED50 fell below or above this range, it was set to either the lowest or the highest concentration tested, respectively, for the purposes of statistical analyses and graphical representation.

The subject of data set [2] is normal PBMCs. Nature of the data set: [3H]-thymidine proliferation assay, mitogen-stimulated normal PBMCs. The class given is cell-based, human. The following applies: Homo sapiens, PBMC, 96 h. As for the experimental part:
CLL cells (2×10^5 cells/well) were cultured in quadruplicate in a volume of 200 μl in 96-well tissue culture plates for 96 hours with 1 μM CpG-oligodeoxynucleotides (ODN) DSP30 (Reference 14) (Midland Certified Reagent Company, Midland, Tex.) and 100 units/ml IL-2 (R&D Systems) in the presence or absence of drug. As controls, cells were treated with media without DSP30/IL-2. Cells were incubated with 1 μCi/well [methyl-^3H]-thymidine (specific activity 6.7 Ci/mmol, PerkinElmer, Waltham, Mass., USA) for 14-18 hours prior to harvesting onto glass-fiber filters using a semi-automated cell harvester. [^3H]-thymidine incorporation was measured as counts per minute (cpm) using a Tri-Carb 2100 timed-resolved liquid scintillation counter (PerkinElmer). The same protocol was utilized for proliferation assays with normal PBMCs, with the exception that growth was stimulated by treatment with 10 μg/ml Phytohemagglutinin-P (PHA, Sigma), 5 μg/ml concanavalin A (ConA, Sigma), 2 μg/ml pokeweed mitogen (PWM, Sigma), 25 ng/ml muromonab-CD3 (α-CD3, Ortho Pharmaceuticals, Raritan, N.J.), or 50 ng/ml phorbol myristate acetate (PMA, Sigma) plus 1 μg/ml ionomycin (iono, Sigma) for 96 hours. Proliferation is reported as percent of control (drug-treated cpm/control-treated cpm×100%).

A further data set concerns CLL cells. The experiment in a line: MTS cytotoxicity assay on primary CLL cells. The class given is cell-based. The following applies: Homo sapiens, CLL cell, 72 h. On the procedure: On the same day that heparin-anticoagulated venous blood was collected from participants, CLL cells were purified by methods described previously (Reference 11). Briefly, CLL cells were isolated from whole blood using the RosetteSep® B-cell enrichment cocktail (Stem Cell Technologies, Vancouver, BC, Canada) together with ficoll-Hypaque density gradient centrifugation. This method yielded CLL cell purity of greater than 95% CD5^+CD19^+ B-cells.
as §1, §2

A further data set relates to CD19-positive B-cell. Nature of the data set: Annexin V apoptosis of normal B-lymphocytes in PBMCs. The note with it: 72 hours. The class given is cell-based, human. As for the experimental part: (§3) PBMCs were cultured at 10^6 cells/ml in a 12-well tissue culture plate. Cells were treated for 72 hours with vehicle control or drug for 72 hours, then harvested as above for staining. PBMCs were resuspended at 2×10^5 cells/tube in 100 μl buffer (HBSS, 0.5% bovine serum albumin, 0.1% sodium azide) and incubated for 30 min with CD3-FITC or CD19-FITC antibodies according to the manufacturer's protocol (BD Biosciences). Cells were then incubated with PE-annexin V and 7-AAD (BD Biosciences) in annexin V binding buffer (BD Biosciences) for 15 minutes prior to analysis of apoptosis on the Guava EasyCyte™ Plus system.

Another data set concerns CD3-positive T-cell. The experiment in a line: Annexin V apoptosis of normal T-lymphocytes in PBMCs. The class given is cell-based, human. The following applies: 72 hours. On the procedure:
as §3

In data set [3] the test system is CD34+ hematopoietic progenitor cells (erythroid colonies). Nature of the data set: Colony formation assay, erythroid colonies. The class given is cell-based, human. The note with it: Homo sapiens, 336 h, read-out: mean IC50 for normal erythroid colony formation. As for the experimental part: (§4) CD34^+ hematopoietic progenitor cells were isolated from PBMCs from two healthy donors using the CD34 Microbead Kit (Miltenyi Biotec, Auburn, Calif.). 10^3 CD34^+-enriched cells were cultured in a 35 mm culture plate (1000 cells/plate) with or without LMP-420 or fludarabine in 1.1 ml Human Methylcellulose Complete Media (R&D Systems) according to the manufacturer's protocol. Plates were incubated for 14 days at 37° C. in humidified 5% CO2. Each treatment group was tested in triplicate. Colonies on plates were scored by two independent observers, blinded to the treatment groups, by microscopic evaluation under 10× and 20× power. Colonies were categorized as being of either erythroid or myeloid lineage.

The subject of data set [4] is CD34+ hematopoietic progenitor cells (myeloid colonies). Nature of the data set: Colony formation assay, myeloid colonies. The class given is cell-based, human. The note with it: Homo sapiens, 336 h, read-out: mean IC50 for normal myeloid colony formation. As for the experimental part: as §4
[5] abbreviates: read-out: IC50 for suppression of mitogen-induced proliferation, Con A, 96 hours.
The mark [6] stands for this setting: read-out: IC50 for suppression of mitogen-induced proliferation, PHA, 96 hours.
[7] abbreviates: read-out: IC50 for suppression of mitogen-induced proliferation, PMA/Iono, 96 hours.
[8] abbreviates: read-out: IC50 for suppression of mitogen-induced proliferation, PWM, 96 hours.
The mark [9] stands for this setting: read-out: IC50 for suppression of mitogen-induced proliferation, α-CD3, 96 hours.
Setting [10] is: mean, PBMCs from healthy blood donors (n = 3-6).
Where [11] appears, read: Con A, 96 hours, read-out: IC50 for suppression of mitogen-induced proliferation.
The mark [12] stands for this setting: PWM, 96 hours, read-out: IC50 for suppression of mitogen-induced proliferation.

Like-named read-outs stand apart in the source and are kept apart here. A value given as a limit tells only on which side of the number the result lay.

As for “4-hydroperoxycyclophosphamide [Cyclophosphamide/4-HC]”, the “Therapeutic Index (PBMC ED50/CLL ED50)” value in the data set with normal PBMCs [1] was found to be 1.7.
For the compound `Cn1c(CCCC(=O)O)nc2cc(N(CCCl)CCCl)ccc21` [Bendamustine, bendamustine], in the data set with normal PBMCs [1], the “Therapeutic Index (PBMC ED50/CLL ED50)” value turned out to be 29.2. Moreover, the EC50 in the data set on normal PBMCs [1] came out at 146 µM. For the same compound, the IC50 in the data set with normal PBMCs [2] (setting [5]) was 16 µM; in the data set on normal PBMCs [2] (setting [6]), 17 µM; in the data set on normal PBMCs [2] (setting [7]), 35 µM; in the data set with normal PBMCs [2] (setting [8]), 14 µM; in the data set on normal PBMCs [2] (setting [9]), 20 µM.
On to `O=C(O)CCCc1ccc(N(CCCl)CCCl)cc1` [Chlorambucil], for which, in the data set on normal PBMCs [1], the “Therapeutic Index (PBMC ED50/CLL ED50)” value is reported as 22.6. In addition, the EC50 with normal PBMCs [1] came out at 67.7 µM. Also, the IC50 in the data set on normal PBMCs [2] (setting [5]) worked out at 12 µM; in the data set with normal PBMCs [2] (setting [6]), 11 µM; in the data set with normal PBMCs [2] (setting [7]), 7 µM; in the data set on normal PBMCs [2] (setting [8]) it was 7.5 µM; in the data set on normal PBMCs [2] (setting [9]), 12.5 µM.
Take `Nc1nc(Cl)nc2c1ncn2[C@H]1C[C@H](O)[C@@H](CO)O1` [Cladribine, cladribine]: in the data set with normal PBMCs [1], the “Therapeutic Index (PBMC ED50/CLL ED50)” value is listed as 10. Also, the EC50 in the data set on normal PBMCs [1] (setting [10]) is 0.1 µM. Also, the results for the IC50 with normal PBMCs [2] (setting [11]) and in the data set with normal PBMCs [2] (setting [12]) were 0.15 µM and 0.1 µM, respectively.
In the case of `Nc1nc(F)nc2c1ncn2[C@@H]1O[C@H](COP(=O)(O)O)[C@@H](O)[C@@H]1O` [Fludarabine, fludarabine phosphate, reference compound], the EC50 with CLL cells (read-out: Median ED50 of fludarabine, 62 nM of LMP-420 added, 72 hours, 21 patient samples) was 0.252 µM; in the data set with CLL cells (read-out: Median ED50 of fludarabine, 250 nM of LMP-420 added, 72 hours, 21 patient samples), 0.125 µM; in the data set with CLL cells (read-out: Median ED50 of fludarabine, no LMP-420 added, 72 hours, 21 patient samples), 0.978 µM; in the data set on normal PBMCs [1] (setting [10]) it was 3.1 µM. Further, the “Therapeutic Index (PBMC ED50/CLL ED50)” value in the data set on normal PBMCs [1] is recorded as 2.6. Also, the IC50 with normal PBMCs [2] (setting [11]) is < 3 µM; in the data set on normal PBMCs [2] (PHA, 96 hours, read-out: IC50 for suppression of mitogen-induced proliferation) it was < 3 µM; with normal PBMCs [2] (PMA/Iono, 96 hours, read-out: IC50 for suppression of mitogen-induced proliferation) it was 0.8 µM; in the data set with normal PBMCs [2] (setting [12]), < 3 µM; in the data set on normal PBMCs [2] (α-CD3, 96 hours, read-out: IC50 for suppression of mitogen-induced proliferation), < 3 µM; in data set [3] it was 5 µM. In addition, the IC50 in data set [4] is 1 µM. Also, in the data set on CD19-positive B-cell (0.4 μM), the “apoptosis in normal B-cells” value is recorded as “caused significant apoptosis”. Besides, the “average percent drug-specific apoptosis, B-cells” value in the data set on CD19-positive B-cell (1 μM, n=3) came to 70%. Besides, the “apoptosis in normal T-cells” value in the data set with CD3-positive T-cell (0.4 μM) is on record as “caused significant apoptosis”. The “average percent drug-specific apoptosis, T-cells” value in the data set on CD3-positive T-cell (1 μM, n=3) is reported as 81%.
